Experimental data as given in patent publication US20240016942A1, “STAT DEGRADERS AND USES THEREOF” (Kymera Therapeutics, Inc., priority 2020, published 2024).

Biological target: T1, STAT3 (Homo sapiens, UniProt P40763)
T1 construct: expressed in transfected cells; host or cells: A549
Assay: STAT3 HiBiT degradation assay (Nano-Glo HiBiT lytic detection) in transfected A549 cells
Format: cell-based
Details: 24 h compound incubation, read-out: STAT3 HiBIT A549 degradation 24 h: Average external-Abs DC50
Protocol: Example 1. HiBiT Assay Protocol
Compound preparation and Cell seeding: The transfected A549 cells were harvested from dish into cell culture medium and cell numbers counted. Cells were diluted with culture medium to the desired density and 30 μL of cell suspension (about 2000 cells/well) were added into each well of a 384-well cell culture plate as designated and transferred into 37° C. 5% CO2 incubator for 24 h. Compounds were dissolved to 10 mM stock solution and 12 μL of the stock solution was transferred to a 384 LDV-plate. 3 fold, 10-point dilution was performed by transferring 4 μL compound into 8 μL DMSO using a TECAN (EVO200) liquid handler. 30 μl of diluted compound from compound source plate was transferred into the cell plate as designated by using Echo550 and transferred into 37° C. 5% CO2 incubator for 24 h.
Detection: Plates were removed from incubators and equilibrated at room temperature for 15 minutes. Nano-Glo Hibit Lytic Detection reagent (Promega Cat #N3040) was thawed and equilibrated to room temperature before the experiment. 30 μL of Nano-Glo Hibit Lytic Detection reagent was added into each well to be detected. The plates were held at room temperature for 10 min followed by reading on EnSpire.
Data analysis: The remaining activity was calculated following the formula: Remaining Activity (%)=100%×(Lumsample−LumNC)/(LumPC−LumNC). Calculate the IC50 by fitting the curve using Xlfit (v5.3.1.3), equation 201: fit=(A+((B−A)/(1+((x/C)^D)))); A: Botton; B: Top; C: IC50; and D: Slope.
The letter codes for STAT3 DC50 include: A (<0.01 μM), B (0.01-0.1 μM), C (0.1-1.0 μM), and D (>1.0 μM).

T1 sequence (P40763 whole entry): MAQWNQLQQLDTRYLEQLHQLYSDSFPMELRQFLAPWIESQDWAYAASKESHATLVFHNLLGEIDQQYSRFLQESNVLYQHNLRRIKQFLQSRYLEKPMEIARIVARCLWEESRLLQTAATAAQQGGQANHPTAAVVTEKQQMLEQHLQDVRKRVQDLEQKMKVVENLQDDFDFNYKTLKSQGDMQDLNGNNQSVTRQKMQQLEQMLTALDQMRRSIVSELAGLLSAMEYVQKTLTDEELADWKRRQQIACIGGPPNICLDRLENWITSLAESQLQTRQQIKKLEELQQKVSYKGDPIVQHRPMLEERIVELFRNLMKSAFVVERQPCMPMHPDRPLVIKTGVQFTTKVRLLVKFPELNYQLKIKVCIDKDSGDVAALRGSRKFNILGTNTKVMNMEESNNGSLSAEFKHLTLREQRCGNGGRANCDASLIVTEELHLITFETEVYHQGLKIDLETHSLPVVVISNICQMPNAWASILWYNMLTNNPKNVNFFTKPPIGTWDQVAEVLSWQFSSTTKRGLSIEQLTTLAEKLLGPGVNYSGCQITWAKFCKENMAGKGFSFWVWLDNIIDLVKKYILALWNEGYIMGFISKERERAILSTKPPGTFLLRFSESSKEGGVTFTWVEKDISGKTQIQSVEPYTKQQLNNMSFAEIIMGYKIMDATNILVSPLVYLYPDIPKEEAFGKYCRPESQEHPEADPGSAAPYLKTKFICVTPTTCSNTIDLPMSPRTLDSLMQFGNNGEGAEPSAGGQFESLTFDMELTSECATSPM

| SMILES | DC50 [nM] |
| --- | --- |
| Cc1ncsc1-c1ccc([C@H](C)NC(=O)[C@@H]2C[C@@H](O)CN2C(=O)[C@@H](NC(=O)CCCCc2cccc(OC[C@H](CCC(N)=O)NC(=O)[C@@H]3CC[C@@H]4CCCC[C@H](NC(=O)c5cc6cc(C(=O)P(=O)(O)O)ccc6[nH]5)C(=O)N43)c2Cl)C(C)(C)C)cc1 [I-1] | < 10 |
| Cc1ncsc1-c1ccc([C@H](C)NC(=O)[C@@H]2C[C@@H](O)CN2C(=O)[C@@H](NC(=O)CCCc2cccc(OC[C@H](CCC(N)=O)NC(=O)[C@@H]3CC[C@@H]4CCCC[C@H](NC(=O)c5cc6cc(C(=O)P(=O)(O)O)ccc6[nH]5)C(=O)N43)c2Cl)C(C)(C)C)cc1 [I-2] | < 10 |
| Cc1ncsc1-c1ccc([C@H](C)NC(=O)[C@@H]2C[C@@H](O)CN2C(=O)[C@@H](NC(=O)CCCCc2cccc(OC[C@H](CCC(N)=O)NC(=O)[C@@H]3CC[C@@H]4CCCC[C@H](NC(=O)c5cc6cc(C(=O)P(=O)(O)O)ccc6[nH]5)C(=O)N43)c2F)C(C)(C)C)cc1 [I-3] | < 10 |
| Cc1cc(CCCCCC(=O)N[C@H](C(=O)N2C[C@H](O)C[C@H]2C(=O)N[C@@H](C)c2ccc(-c3scnc3C)cc2)C(C)(C)C)c(F)c(OC[C@H](CCC(N)=O)NC(=O)[C@@H]2CC[C@@H]3CCCC[C@H](NC(=O)c4cc5cc(C(=O)P(=O)(O)O)ccc5[nH]4)C(=O)N32)c1 [I-4] | < 10 |
| Cc1cc(CCCC(=O)N[C@H](C(=O)N2C[C@H](O)C[C@H]2C(=O)N[C@@H](C)c2ccc(-c3scnc3C)cc2)C(C)(C)C)c(Cl)c(OC[C@H](CCC(N)=O)NC(=O)[C@@H]2CC[C@@H]3CCCC[C@H](NC(=O)c4cc5cc(C(=O)P(=O)(O)O)ccc5[nH]4)C(=O)N32)c1 [I-5] | < 10 |
| Cc1ncsc1-c1ccc([C@H](C)NC(=O)[C@@H]2C[C@@H](O)CN2C(=O)[C@@H](NC(=O)CCCCCc2cccc(OC[C@H](CCC(N)=O)NC(=O)[C@@H]3CC[C@@H]4CCCC[C@H](NC(=O)c5cc6cc(C(=O)P(=O)(O)O)ccc6[nH]5)C(=O)N43)c2F)C(C)(C)C)cc1 [I-6] | 10 to 100 |
| Cc1cc(CCCC(=O)N[C@H](C(=O)N2C[C@H](O)C[C@H]2C(=O)N[C@@H](C)c2ccc(-c3scnc3C)cc2)C(C)(C)C)c(F)c(OC[C@H](CCC(N)=O)NC(=O)[C@@H]2CC[C@@H]3CCCC[C@H](NC(=O)c4cc5cc(C(=O)P(=O)(O)O)ccc5[nH]4)C(=O)N32)c1 [I-7] | < 10 |
| Cc1ncsc1-c1ccc([C@H](C)NC(=O)[C@@H]2C[C@@H](O)CN2C(=O)[C@@H](NC(=O)CCCc2cc(F)cc(OC[C@H](CCC(N)=O)NC(=O)[C@@H]3CC[C@@H]4CCCC[C@H](NC(=O)c5cc6cc(C(=O)P(=O)(O)O)ccc6[nH]5)C(=O)N43)c2Cl)C(C)(C)C)cc1 [I-8] | < 10 |
| Cc1ncsc1-c1ccc([C@H](C)NC(=O)[C@@H]2C[C@@H](O)CN2C(=O)[C@@H](NC(=O)CCCc2cccc(OC[C@H](CCC(N)=O)NC(=O)[C@@H]3CC[C@@H]4CCCC[C@H](NC(=O)c5cc6cc(C(=O)P(=O)(O)O)ccc6[nH]5)C(=O)N43)c2F)C(C)(C)C)cc1 [I-9] | < 10 |
| Cc1ncsc1-c1ccc(C2(NC(=O)[C@@H]3C[C@@H](O)CN3C(=O)[C@@H](NC(=O)CCCCc3cccc(OC[C@H](CCC(N)=O)NC(=O)[C@@H]4CC[C@@H]5CCCC[C@H](NC(=O)c6cc7cc(C(=O)P(=O)(O)O)ccc7[nH]6)C(=O)N54)c3Cl)C(C)(C)C)CC2)cc1 [I-10] | < 10 |
| Cc1ncsc1-c1ccc([C@H](C)NC(=O)[C@@H]2C[C@@H](O)CN2C(=O)[C@@H](NC(=O)CCCc2cccc(OC[C@H](CCC(N)=O)NC(=O)[C@@H]3CCCN3C(=O)[C@H](CO)NC(=O)c3cc4cc(C(=O)P(=O)(O)O)ccc4[nH]3)c2Cl)C(C)(C)C)cc1 [I-11] | 10 to 100 |
| Cc1ncsc1-c1ccc([C@H](C)NC(=O)[C@@H]2C[C@@H](O)CN2C(=O)[C@@H](NC(=O)CCCc2cccc(OC[C@H](CCC(N)=O)NC(=O)[C@@H]3CCCN3C(=O)[C@@H](NC(=O)c3cc4cc(C(=O)P(=O)(O)O)ccc4[nH]3)C3CCCCC3)c2Cl)C(C)(C)C)cc1 [I-12] | 10 to 100 |
| Cc1ncsc1-c1ccc([C@H](C)NC(=O)[C@@H]2C[C@@H](O)CN2C(=O)[C@@H](NC(=O)CCCc2cccc(OC[C@H](CCC(N)=O)NC(=O)[C@@H]3CCCN3C(=O)CNC(=O)c3cc4cc(C(=O)P(=O)(O)O)ccc4[nH]3)c2Cl)C(C)(C)C)cc1 [I-13] | 10 to 100 |
| Cc1ncsc1-c1ccc([C@H](C)NC(=O)[C@@H]2C[C@@H](O)CN2C(=O)[C@@H](NC(=O)CCCc2cccc(OC[C@H](CCC(N)=O)NC(=O)[C@@H]3CCCN3C(=O)[C@@H](NC(=O)c3cc4cc(C(=O)P(=O)(O)O)ccc4[nH]3)C(C)(C)C)c2Cl)C(C)(C)C)cc1 [I-14] | 100 to 1000 |
| Cc1ncsc1-c1ccc([C@H](C)NC(=O)[C@@H]2C[C@@H](O)CN2C(=O)[C@@H](NC(=O)CCCc2cccc(OC[C@H](CCC(N)=O)NC(=O)[C@@H]3CCCN3C(=O)[C@@H](NC(=O)c3cc4cc(C(=O)P(=O)(O)O)ccc4[nH]3)C(C)C)c2Cl)C(C)(C)C)cc1 [I-15, 2-[[(2S)-1-[(2S)-2-[[(2S)-4-carbamoyl-1-[2-chloro-3-(3-[[(2S)-1-[(2S,4R)-4-hydroxy-2-[[(1S)-1-[4-(4-methyl-1,3-thiazol-5-yl)phenyl]ethyl]carbamoyl]pyrrolidin-1-yl]-3,3-dimethyl-1-oxobutan-2-yl]carbamoyl]propyl)phenoxy]butan-2-yl]carbamoyl]pyrrolidin-1-yl]-3-methyl-1-oxobutan-2-yl]carbamoyl]-1H-indole-5-carbonylphosphonic acid] | 10 to 100 |
| CNC(=O)[C@@H]1Cc2cc(CCCCCCc3ccc4c(c3)n(C)c(=O)n4C3CCC(=O)NC3=O)cc3c2N1C(=O)[C@@H](NC(=O)c1cc2cc(C(=O)P(=O)(O)O)ccc2[nH]1)CC3 (stereo partly drawn) [I-20] | > 1000 |
| C[C@H](CCC(=O)N(C)C)NC(=O)[C@@H]1Cc2cc(CCCCCCc3ccc4c(c3)n(C)c(=O)n4C3CCC(=O)NC3=O)cc3c2N1C(=O)[C@@H](NC(=O)c1cc2cc(C(=O)P(=O)(O)O)ccc2[nH]1)CC3 (stereo partly drawn) [I-21] | > 1000 |
| CNC(=O)CC[C@@H](C)NC(=O)[C@@H]1Cc2cc(CCCCCCc3ccc4c(c3)n(C)c(=O)n4C3CCC(=O)NC3=O)cc3c2N1C(=O)[C@@H](NC(=O)c1cc2cc(C(=O)P(=O)(O)O)ccc2[nH]1)CC3 (stereo partly drawn) [I-22] | > 1000 |
| CC(=O)N1CC[C@H]2CC[C@@H](C(=O)N[C@@H](CCC(N)=O)COc3cc(C)cc(CCCCCC(=O)N[C@H](C(=O)N4C[C@@H](O)C[C@H]4C(=O)N[C@@H](C)c4ccc(-c5scnc5C)cc4)C(C)(C)C)c3F)N2C[C@@H](NC(=O)c2cc3cc(C(=O)P(=O)(O)O)ccc3[nH]2)C1 [I-23] | > 1000 |
| CC(=O)N1CC[C@H]2CC[C@@H](C(=O)N[C@H](CCC(N)=O)COc3cccc(CCCCC(=O)N[C@H](C(=O)N4C[C@H](O)C[C@H]4C(=O)N[C@@H](C)c4ccc(-c5scnc5C)cc4)C(C)(C)C)c3Cl)N2C(=O)[C@@H](NC(=O)c2cc3cc(C(=O)P(=O)(O)O)ccc3[nH]2)C1 [I-24] | 100 to 1000 |
| CN(C)C(=O)[C@@H]1Cc2cc(CCCCCCc3ccc4c(c3)n(C)c(=O)n4C3CCC(=O)NC3=O)cc3c2N1C(=O)[C@@H](NC(=O)c1cc2cc(C(=O)P(=O)(O)O)ccc2[nH]1)CC3 (stereo partly drawn) [I-25, 2-[[(2S, 11S)-2-(dimethylcarbamoyl)-6-[6-[1-(2,6-dioxopiperidin-3-yl)-3-methyl-2-oxo-1,3-benzodiazol-5-yl]hexyl]-12-oxo-1-azatricyclo [6.4.1.0^[4, 13]]trideca-4(13), 5,7-trien-11-yl]carbamoyl]-1H-indole-5-carbonylphosphonic acid] | > 1000 |
| Cn1c(=O)n(C2CCC(=O)NC2=O)c2ccc(C[C@H]3CC[C@@H](CC(=O)N4CC[C@H]5CC[C@@H](C(=O)NC(C)(C)CCC(N)=O)N5C(=O)[C@@H](NC(=O)c5cc6cc(C(=O)P(=O)(O)O)ccc6[nH]5)C4)CC3)cc21 (stereo partly drawn) [I-26] | > 1000 |
| Cn1c(=O)n(C2CCC(=O)NC2=O)c2ccc(CCCc3cccc(OC[C@H](CCC(N)=O)NC(=O)[C@@H]4CC[C@@H]5CCCC[C@H](NC(=O)c6cc7cc(C(=O)P(=O)(O)O)ccc7[nH]6)C(=O)N54)c3Cl)cc21 (stereo partly drawn) [I-27] | > 1000 |
| Cn1c(=O)n(C2CCC(=O)NC2=O)c2ccc(CCCCCc3cccc(OC[C@H](CCC(N)=O)NC(=O)[C@@H]4CC[C@@H]5CCCC[C@H](NC(=O)c6cc7cc(C(=O)P(=O)(O)O)ccc7[nH]6)C(=O)N54)c3Cl)cc21 (stereo partly drawn) [I-28] | 100 to 1000 |
| Cn1c(=O)n(C2CCC(=O)NC2=O)c2ccc(C[C@H]3CC[C@@H](CC(=O)N4CC[C@H]5CC[C@@H](C(=O)NC6(CCC(N)=O)CCCC6)N5C(=O)[C@@H](NC(=O)c5cc6cc(C(=O)P(=O)(O)O)ccc6[nH]5)C4)CC3)cc21 (stereo partly drawn) [I-29] | > 1000 |
| CC(C)c1ccc(CNC(=O)[C@H](CCC(N)=O)NC(=O)[C@@H]2CC[C@@H]3CCN(C(=O)[C@H]4CC[C@@H](CCc5ccc6c(c5)n(C)c(=O)n6C5CCC(=O)NC5=O)CC4)C[C@H](NC(=O)c4cc5cc(C(=O)P(=O)(O)O)ccc5[nH]4)C(=O)N32)cc1F (stereo partly drawn) [I-30] | 10 to 100 |
| Cn1c(=O)n(C2CCC(=O)NC2=O)c2ccc(C[C@H]3CC[C@@H](CC(=O)N4CC[C@H]5CC[C@@H](C(=O)NC6(CCC(N)=O)CC6)N5C(=O)[C@@H](NC(=O)c5cc6cc(C(=O)P(=O)(O)O)ccc6[nH]5)C4)CC3)cc21 (stereo partly drawn) [I-31] | > 1000 |
